Consider 8 compounds from ChEMBL document CHEMBL1141685, “Hexahydro-pyrrolo- and hexahydro-1H-pyrido[1,2-b]pyridazin-2-ones as potent inhibitors of HCV NS5B polymerase” (Bioorg Med Chem Lett, 2008).

By half-life is commonly meant the time needed for the level to fall by half in the phase considered. As usually defined, the EC50 is the concentration needed to bring the measured effect to its halfway point. The CC50 is the concentration giving 50% cytotoxicity. A word on the IC50: it is the midpoint of a concentration-inhibition curve. The Papp A→B is how fast a substance crosses the layer from the apical side. As a reminder, the AUC is the area under the concentration-time curve, a measure of exposure. The bioavailability is the share of a dose that reaches the circulation, judged against a reference dose that is usually intravenous.

Molecules are shown by their SMILES. Where only a bound is given, the exact number is not on record here.

The nature of data set [1]: Metabolic stability in human liver microsomes at 1 uM. On the technique in general: Liver microsomes are a subcellular fraction often used to study metabolism.
Data set [2] is described as follows: Metabolic stability in human liver microsomes assessed as compound remaining at 1 uM after 60 mins. It is filed as ADME, Microsome. Conditions: read-out: Stability.
Data set [3] deals with Hepatitis C virus. As to the kind of experiment: Antiviral activity against HCV 1b infected in human Huh7/C24 cells after 72 hrs by replicon assay. The format is functional, organism-based, Hepacivirus hominis. Conditions: genotype 1b, Huh-7, 72 h. A general note: A replicon is a self-replicating genome or part of one, used to study replication in cells.
A short description of data set [4]: Metabolic stability in cynomolgus monkey liver microsomes at 1 uM.
Data set [5] in a line: Cytotoxicity against human Huh7/C24 cells after 72 hrs […]. The format is cell-based, Huh-7.
Data set [6] relates to Hepatitis C virus. As to the kind of experiment: Inhibition of HCV 1b NS5B polymerase by microbeta scintillation counter. Further details: species or system Hepatitis C virus subtype 1b.
A short description of data set [7]: Metabolic stability in cynomolgus monkey liver microsomes assessed as compound remaining at 1 uM after 60 mins. The format is ADME, Macaca fascicularis, Microsome. Conditions: read-out: Stability.
Data set [8] can be described thus: Apparent permeability from apical to basolateral side in human Caco-2 cell membrane at 10 uM.
Data set [9] concerns Cynomolgus monkey. As to the kind of experiment: Hepatic blood flow in cynomolgus monkey. The format is ADME, organism-based, Macaca fascicularis, Liver.
Data set [10] concerns Cynomolgus monkey. As to the kind of experiment: AUC (0 to infinity) in cynomolgus monkey at 1 mg/kg, po. Also noted: time infinity, dose 1 mg/kg, route oral. It is filed as ADME, organism-based, Macaca fascicularis, Plasma. The settings on record: in vivo.
Data set [11] has as its system Cynomolgus monkey. As to the kind of experiment: AUC (0 to infinity) in cynomolgus monkey at 1 mg/kg, iv. The format is ADME, organism-based, Macaca fascicularis, Plasma. Also noted: time infinity, dose 1 mg/kg, route intravenous. The settings on record: in vivo.
Data set [12] in a line: Oral bioavailability in cynomolgus monkey at 1 mg/kg. The format is ADME, organism-based, Macaca fascicularis. Conditions: in vivo.
Data set [13] can be described thus: Fabs in cynomolgus monkey. The settings on record: in vivo, read-out: Fabs. It is filed as ADME, organism-based, Macaca fascicularis.

As to `CS(=O)(=O)Nc1ccc2c(c1)S(=O)(=O)N=C(c1c(O)c3cccn3n(Cc3ccc(F)cc3)c1=O)N2`, the half-life at 1 µM in [1] (liver microsomes) and in [4] (liver microsomes) was greater than 60 min throughout. The remaining at 1 h, 1 µM in [2] was 86%. In data set [3], this compound yielded an EC50 of 12 nM. Further, the CC50 at 72 h in data set [5] is greater than 1000 nM. Besides, in data set [6], the half-maximal inhibitory concentration (IC50) was less than 10 nM.
On to `CS(=O)(=O)Nc1ccc2c(c1)S(=O)(=O)N=C(C1=C(O)C3CCCCN3N(Cc3ccc(F)cc3)C1=O)N2` (configuration not stated), for which the half-life at 1 µM in data set [1] (microsomes) and in data set [4] (microsomes) was greater than 60 min throughout. Moreover, the remaining at 1 h, 1 µM in data set [2] is 102%; in data set [7] it was 100%. The concentration for a half-maximal effect (EC50) in data set [3] came out at 300 nM. Moreover, the CC50 at 72 h in [5] was greater than 1000 nM. The apparent permeability from apical to basolateral (Papp A→B) at 10 µM in data set [8] is 0.1 ×10⁻⁶ cm/s. In data set [6], this compound displayed an IC50 of 16 nM.
For `CN(c1ccc2c(c1)S(=O)(=O)N=C(C1=C(O)C3CCCN3N(CCC(C)(C)C)C1=O)N2)S(C)(=O)=O` (configuration not stated), the figures for the half-life at 1 µM in [1] (liver microsomes) and in data set [4] (liver microsomes) were greater than 60 min and 17 min, respectively. The compound also returned an EC50 in [3] of 3600 nM. In data set [5], the half-maximal cytotoxic concentration (CC50) at 72 h was greater than 33000 nM. Besides, in data set [6], the IC50 worked out at 160 nM.
Consider `CC(C)(C)CCN1C(=O)C(C2=NS(=O)(=O)c3cc(NS(C)(=O)=O)ccc3N2)=C(O)C2(C)CCCN12` (configuration not stated), for which the half-life at 1 µM in data set [1] (liver microsomes) was determined as 4.9 min; in [4] (liver microsomes), 10 min. The compound also registered a half-maximal effective concentration (EC50) in data set [3] of 1100 nM. The CC50 at 72 h in data set [5] was greater than 33000 nM. For the same compound, the Papp A→B at 10 µM in data set [8] was 0.6 ×10⁻⁶ cm/s. In data set [6], this compound displayed a half-maximal inhibitory concentration (IC50) of 180 nM.
Consider `CC(C)(C)CCN1C(=O)C(C2=NS(=O)(=O)c3cc(NS(C)(=O)=O)ccc3N2)=C(O)C2CCCCN21` (configuration not stated), for which the half-life at 1 µM was 52 min in [1] (liver microsomes) and 18 min in [4] (liver microsomes). Further, in data set [3], the EC50 came out at 110 nM. The CC50 at 72 h in [5] was greater than 33000 nM. Moreover, the Papp A→B at 10 µM in data set [8] is 0.31 ×10⁻⁶ cm/s. Also, the IC50 in data set [6] came out at 41 nM.
Turning to `CS(=O)(=O)Nc1ccc2c(c1)S(=O)(=O)N=C(C1=C(O)C3CCCN3N(Cc3ccc(F)cc3)C1=O)N2` (configuration not stated), the half-life at 1 µM in data set [1] (liver microsomes) and in [4] (liver microsomes) was greater than 60 min throughout. The remaining at 1 h, 1 µM amounted to 87% in data set [2] and 94% in [7]. In addition, the half-maximal effective concentration (EC50) in data set [3] is 190 nM. Further, the CC50 at 72 h in [5] is greater than 1000 nM. The Papp A→B at 10 µM in data set [8] came to 0.2 ×10⁻⁶ cm/s. The compound further gave a 50% inhibitory concentration (IC50) in data set [6] of less than 10 nM.
`CC(C)(C)CCN1C(=O)C(C2=NS(=O)(=O)c3cc(NS(C)(=O)=O)ccc3N2)=C(O)C2CCCN21` (configuration not stated): the figures for the half-life at 1 µM in data set [1] (microsomes) and in data set [4] (microsomes) were 59 min and 7.5 min, respectively. This compound also yielded a QH in data set [9] of 44 mL/min/kg. For the same compound, the EC50 in data set [3] is 34 nM. In addition, the area under the curve (AUC) in data set [10] was 344 ng·h/mL; in [11], 5180 ng·h/mL. Also, the CC50 at 72 h in [5] is greater than 1000 nM. Also, the apparent permeability from apical to basolateral (Papp A→B) at 10 µM in data set [8] is 0.44 ×10⁻⁶ cm/s. In [12], this compound returned a bioavailability of 7%. In addition, in data set [13], the Fa came out at 8%. Also, the IC50 in data set [6] is less than 10 nM.
Regarding `CC(C)CCN1C(=O)C(C2=NS(=O)(=O)c3cc(NS(C)(=O)=O)ccc3N2)=C(O)C2CCCN21` (configuration not stated), the half-life at 1 µM in data set [1] (microsomes) is greater than 60 min; in data set [4] (microsomes), 63 min. The remaining at 1 h, 1 µM in data set [2] was found to be 65%. For the same compound, in data set [3], the EC50 was 160 nM. The CC50 at 72 h in [5] is greater than 1000 nM. The apparent permeability from apical to basolateral (Papp A→B) at 10 µM in data set [8] is 0.2 ×10⁻⁶ cm/s. The IC50 in data set [6] turned out to be 12 nM.
